{"source": "patent US20040058969A1", "about": "“Novel epothilone derivatives, method for the preparation thereof and their pharmaceutical use” (priority 2000, published 2004)", "origin": "cited, not measured here", "test_system": "P-glycoprotein-forming multiresistant tumor lines", "conditions": "in vitro, relative to taxol", "data": [{"smiles": "C/C(=C\\c1csc(C)n1)[C@@H]1C[C@@H]2O[C@]2(C)CCC[C@H](C)[C@H](O)[C@@H](C)C(=O)C(C)(C)[C@@H](O)CC(=O)O1", "note": "[Epothilone B, epothilone B]", "values": [{"measurement": "activity against P-glycoprotein-forming multiresistant tumor lines in comparison to taxol", "value": "significantly higher activity"}]}, {"smiles": "C/C(=C\\c1csc(C)n1)[C@@H]1C[C@@H]2O[C@@H]2CCC[C@H](C)[C@H](O)[C@@H](C)C(=O)C(C)(C)[C@@H](O)CC(=O)O1", "note": "[Epothilone A, epothilone A]", "values": [{"measurement": "activity against P-glycoprotein-forming multiresistant tumor lines in comparison to taxol", "value": "significantly higher activity"}]}]}
